This assay has as its target T1, protein-farnesyl transferase (PFT) (Rattus norvegicus, UniProt Q02293+Q04631).
T1 construct: a soluble fraction of rat's brain was fractionated; from tissue; host or cells: rat brain, soluble fraction, 30-50% ammonium sulfate cut, Q-Sepharose chromatography
The assay is described as follows: Inhibitory activities against protein-farnesyl transferase (PFT), IC50. The class given is biochemical. Conditions: PFT from rat brain (Q-sepharose fraction); prenyl acceptor H-ras protein or biotin-added Lys-Thr-Ser-Cys-Val-Ile-Met (not stated which for Table 1); [3H]-FPP 0.6 μM; 37° C., 20 min; read-out: 50% inhibitory concentrations against PFT activities, IC50. Here is the method: PFT was separated in such a manner that a soluble fraction of rat's brain was fractionated by means of 30%-50% saturated ammonium sulfate, further dialyzed and then subjected to column chromatography by Q-sepharose™ (manufactured by Pharmacia) (Reiss et al., Cell, vol. 62, pp. 81-88 (1990)).
Measurement of PFT activities was conducted by using, as a prenyl acceptor, H-ras protein or a peptide corresponding to the C-terminal 7 amino acid residues of K-rasB protein which had biotin added to the N-terminal (biotin-added Lys-Thr-Ser-Cys-Val-Ile-Met) and, as a prenyl donor, [^3 H]-labeled farnesyl pyrophosphate (FPP) (Reiss et al., Methods: A companion to Methods in Enzymology, vol. 1, No. 3, pp. 241-245 (1990)).
The [^3 H]-labeled farnesyl pyrophosphate (22.5 Ci/mmol) was purchased from New England Nuclear Co. Non-labeled farnesyl pyrophosphate was chemically synthesized from ditrethylammonium phosphate, trans-trans-farnesol and trichloroacetonitrile and purified by a XAD-2-resin column and diethylaminoethylcellulose (Cornforth et al., Methods in Enzymology, vol. 15, pp. 385-390 (1969)). […]
The enzymatic reaction product containing H-ras protein as the prenyl acceptor, was analyzed by SDS-PAGE (sodium dodecyl sulfate/polyacrylamide gel electrophoresis). […]
The measurement of PFT activities using H-ras protein as the prenyl receptor, was also analyzed by a rapid separate method. […]

Results on two molecules are retold here after US6048894A, “Substituted amide derivatives” (Banyu Pharmaceutical Co., Ltd., priority 1996, dated 2000).

Structures are written as SMILES.

Take `CCOC(=O)/C=C/[C@@H](Cc1ccc(C(=O)Nc2ccccc2)o1)[C@@H](C)N(Cc1ccc2ccccc2c1)C(=O)C(O)=C(CC(=O)O)C(=O)OCC` (relative stereo) [Example 4]: the IC50 came out at 7.8 nM.

As to `CCOC(=O)C(CC(=O)O)=C(O)C(=O)N(Cc1ccc2ccccc2c1)[C@H](C)[C@@H](Cc1ccc(C(=O)Nc2ccccc2)o1)C(=O)OC(C)C` (racemic) [Example 2, 3-(ethoxycarbonyl)-4-hydroxy-4-[N-[(1RS,2RS)-2-(isopropoxycarbonyl)-1-methyl-3-{5-(phenylcarbamoyl)-2-furyl}propyl]-N-(2-naphthylmethyl)carbamoyl]-3-butenoic acid], the IC50 was determined as 3.1 nM.
